According to ChEMBL document CHEMBL1201862, “PubChem BioAssay data set” (2004):
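Exposure lasted 48 hours, with cells grown in 96-well plates and compounds tested at five concentrations. At the GI50, growth is halved.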 The source made the active and inactive calls. Rule as the data show it: active = GI50 up to about 1.1 µM and inactive = higher.

Columns and labels:
Assay in all cases: NCI-60 cell line screen, 48 h
NCI-H23 = test system: NCI-H23
U-251 = test system: U-251
OVCAR-3 = test system: OVCAR-3
SK-OV-3 = test system: SK-OV-3
SK-MEL-5 = test system: SK-MEL-5
TK-10 = test system: TK-10
786-0 = test system: 786-0
Malme-3M = test system: Malme-3M
RXF 393 = test system: RXF 393
RPMI-8226 = test system: RPMI-8226
CCRF-CEM = test system: CCRF-CEM
NCI-H226 = test system: NCI-H226
UACC-62 = test system: UACC-62
LOX IMVI = test system: LOX IMVI
SF-268 = test system: SF-268
HCT-15 = test system: HCT-15
PC-3 = test system: PC-3
MDA-MB-231 = test system: MDA-MB-231
MDA-MB-435 = test system: MDA-MB-435

Row | Structure (SMILES) | GI50 (NCI-H23) | GI50 (U-251) | GI50 (OVCAR-3) | GI50 (SK-OV-3) | GI50 (SK-MEL-5) | GI50 (TK-10) | GI50 (786-0) | GI50 (Malme-3M) | GI50 (RXF 393) | GI50 (RPMI-8226) | GI50 (CCRF-CEM) | GI50 (NCI-H226) | GI50 (UACC-62) | GI50 (LOX IMVI) | GI50 (SF-268) | GI50 (HCT-15) [µM] | GI50 (PC-3) | GI50 (MDA-MB-231) | GI50 (MDA-MB-435)
1 | O=C1OC(c2ccccc2)=N/C1=C/NC(CS)C(=O)O (stereo not drawn) | > 100 µM (inactive) | > 100 µM (inactive) | > 100 µM (inactive) | > 100 µM (inactive) | > 100 µM (inactive) | > 100 µM (inactive) | > 100 µM (inactive) | > 100 µM (inactive) | > 100 µM (inactive) | > 100 µM (inactive) | > 100 µM (inactive) | > 100 µM (inactive) | > 100 µM (inactive) | > 100 µM (inactive) | > 100 µM (inactive) | > 100 |  |  | 
2 | Cc1c(N)c(C#N)c2n(C)c3ncccc3n2c1=O | > 100 µM (inactive) | > 100 µM (inactive) | > 100 µM (inactive) | > 100 µM (inactive) | > 100 µM (inactive) | > 100 µM (inactive) | > 100 µM (inactive) | > 100 µM (inactive) | > 100 µM (inactive) | > 100 µM (inactive) | > 100 µM (inactive) | > 100 µM (inactive) | > 100 µM (inactive) | > 100 µM (inactive) | > 100 µM (inactive) | > 100 |  |  | 
3 | N#Cc1c(N2CCCC2)nsc1Nc1ccccc1 | > 100 µM (inactive) |  |  |  | > 100 µM (inactive) | > 100 µM (inactive) | > 100 µM (inactive) | > 100 µM (inactive) | > 100 µM (inactive) | > 100 µM (inactive) | > 100 µM (inactive) | > 100 µM (inactive) |  | > 100 µM (inactive) | > 100 µM (inactive) | > 100 | > 100 µM (inactive) | > 100 µM (inactive) | 
4 | Cc1ccccc1NC(=O)c1ccc([N+](=O)[O-])cc1 | > 100 µM (inactive) | > 100 µM (inactive) | 53.5 µM (inactive) | > 100 µM (inactive) | 84.9 µM (inactive) | 97.3 µM (inactive) | > 100 µM (inactive) | > 100 µM (inactive) | 15.8 µM (inactive) | > 100 µM (inactive) | > 100 µM (inactive) | > 100 µM (inactive) | > 100 µM (inactive) | > 100 µM (inactive) | > 100 µM (inactive) | 66.2 |  |  | 
5 | CCCCCNC(=O)CCCCCCCCCCCNC(=O)CCCCCCCCCCN1C=CC(=CC=C2C=CC(=O)C=C2)C=C1 | 28.2 µM (inactive) | 32.1 µM (inactive) | 41.3 µM (inactive) | > 100 µM (inactive) | 35.2 µM (inactive) | > 10 µM (inactive) | > 100 µM (inactive) | 34.9 µM (inactive) | > 100 µM (inactive) | 8.99 µM (inactive) | 15.1 µM (inactive) | 63.8 µM (inactive) | 48.4 µM (inactive) | 34.8 µM (inactive) | > 100 µM (inactive) | > 100 |  |  | 
6 | COC1(C(C)(C)C)C=C(C(C)(C)C)P(=O)(O)O1 (stereo not drawn) | > 100 µM (inactive) | > 100 µM (inactive) | > 100 µM (inactive) | > 100 µM (inactive) | > 100 µM (inactive) | > 100 µM (inactive) | > 100 µM (inactive) | > 100 µM (inactive) |  | > 100 µM (inactive) |  |  | > 100 µM (inactive) | > 100 µM (inactive) | > 100 µM (inactive) | > 100 | > 100 µM (inactive) |  | > 100 µM (inactive)
7 | O=C(Cn1c(=O)oc2ccc(C(=O)c3ccc(F)cc3)cc21)c1ccccc1 | > 100 µM (inactive) | > 100 µM (inactive) |  | > 100 µM (inactive) | 48 µM (inactive) | > 100 µM (inactive) | > 100 µM (inactive) | > 100 µM (inactive) | > 100 µM (inactive) | > 100 µM (inactive) | > 100 µM (inactive) | > 100 µM (inactive) | > 100 µM (inactive) | > 100 µM (inactive) | > 100 µM (inactive) | > 100 | > 100 µM (inactive) | > 100 µM (inactive) | > 100 µM (inactive)
8 | C/C(=N\NC(N)=S)c1cc(C)c(C)cc1C | 41.7 µM (inactive) | 48.6 µM (inactive) | 24.4 µM (inactive) | > 100 µM (inactive) | 57 µM (inactive) | 89.5 µM (inactive) | 93.8 µM (inactive) | 32.6 µM (inactive) | 29 µM (inactive) | 31.3 µM (inactive) | 29.9 µM (inactive) | > 100 µM (inactive) | 30.9 µM (inactive) | 70.8 µM (inactive) | 62.4 µM (inactive) | 83.8 |  |  | 
9 | O=C1C(c2ccccc2)=C(O)c2cccc3cccc1c23 | > 100 µM (inactive) | > 100 µM (inactive) | 47.4 µM (inactive) | > 100 µM (inactive) | > 100 µM (inactive) | > 100 µM (inactive) | > 100 µM (inactive) | > 100 µM (inactive) | > 100 µM (inactive) | > 100 µM (inactive) | > 100 µM (inactive) | 88.9 µM (inactive) | > 100 µM (inactive) | > 100 µM (inactive) | > 100 µM (inactive) | > 100 |  |  | 
10 | O=C(NC1C(=O)NNC1c1ccccc1Cl)c1ccccc1 (stereo not drawn) | > 100 µM (inactive) | > 100 µM (inactive) | > 100 µM (inactive) | > 100 µM (inactive) | > 100 µM (inactive) | > 100 µM (inactive) | > 100 µM (inactive) | > 100 µM (inactive) | > 100 µM (inactive) | 82.2 µM (inactive) | > 100 µM (inactive) | 83 µM (inactive) | > 100 µM (inactive) | > 100 µM (inactive) | > 100 µM (inactive) | > 100 |  |  | 
11 | COc1ccc2c3c([nH]c2c1)CCN(Cc1ccccc1)C3 | 42.3 µM (inactive) | 22.5 µM (inactive) |  | > 100 µM (inactive) | 17 µM (inactive) | 24.4 µM (inactive) | > 10 µM (inactive) | 18.7 µM (inactive) | 18.3 µM (inactive) | 22.8 µM (inactive) | 34.3 µM (inactive) | 22.3 µM (inactive) | 31.8 µM (inactive) | 15.8 µM (inactive) | > 100 µM (inactive) | 17.9 |  | 28.9 µM (inactive) | 23.6 µM (inactive)
12 | Cn1c(=O)oc2cc(Br)ccc21 | > 100 µM (inactive) |  | > 100 µM (inactive) | > 100 µM (inactive) | > 100 µM (inactive) | > 100 µM (inactive) | > 100 µM (inactive) | > 100 µM (inactive) | > 100 µM (inactive) | > 100 µM (inactive) | > 100 µM (inactive) | > 100 µM (inactive) | > 100 µM (inactive) | > 100 µM (inactive) | > 100 µM (inactive) | > 100 | > 100 µM (inactive) | > 100 µM (inactive) | > 100 µM (inactive)
13 | [N-]=[N+]=Nc1c(Cl)c(Cl)nc2ccccc12 | 75.5 µM (inactive) |  | 34.5 µM (inactive) | > 100 µM (inactive) | > 100 µM (inactive) | 95.9 µM (inactive) | > 100 µM (inactive) | > 100 µM (inactive) | 88.5 µM (inactive) | 62.8 µM (inactive) | 54.5 µM (inactive) | 66.7 µM (inactive) | > 100 µM (inactive) | 62.1 µM (inactive) | > 100 µM (inactive) | > 100 | > 100 µM (inactive) | 81.5 µM (inactive) | > 100 µM (inactive)
14 | COC1CC(C)C(OC)c2cc(O)cc(c2O)NC(=O)/C(C)=C/C=C\C(C)C(OC(N)=O)/C(C)=C\C(C)C1OC (stereo not drawn) |  | 0.497 µM (active) |  | 0.292 µM (active) | 0.268 µM (active) | 6.97 µM (inactive) | 2.03 µM (inactive) | 0.225 µM (active) | 0.316 µM (active) | 0.152 µM (active) | 0.192 µM (active) | 7.35 µM (inactive) | 0.274 µM (active) | 0.471 µM (active) | 2.19 µM (inactive) | 5.6 | 0.228 µM (active) |  | 0.0998 µM (active)
15 | O=c1c2ccccc2c(=O)c2c1c1[nH]c3ccccc3c1c1c(=O)c3ccccc3c(=O)c21 | > 100 µM (inactive) | > 100 µM (inactive) | > 100 µM (inactive) | > 100 µM (inactive) | > 100 µM (inactive) | > 100 µM (inactive) | > 100 µM (inactive) | > 100 µM (inactive) | > 100 µM (inactive) | > 100 µM (inactive) | 94 µM (inactive) | > 100 µM (inactive) | > 100 µM (inactive) | > 100 µM (inactive) | > 100 µM (inactive) | > 100 |  |  | 
16 | O=C(O)Cc1ccccc1CCc1ccccc1Cl | > 100 µM (inactive) | > 100 µM (inactive) | 53.2 µM (inactive) | > 100 µM (inactive) | > 100 µM (inactive) | > 100 µM (inactive) | > 100 µM (inactive) | > 100 µM (inactive) | > 100 µM (inactive) | > 100 µM (inactive) | > 100 µM (inactive) | 68.1 µM (inactive) |  | > 100 µM (inactive) | > 100 µM (inactive) | > 100 |  |  | 
17 | O/N=C1/CCCC/C1=C/C=C/c1ccccc1 | 22.8 µM (inactive) | 16.7 µM (inactive) | 17.9 µM (inactive) | 39 µM (inactive) | 16.5 µM (inactive) | 29 µM (inactive) | 23.2 µM (inactive) | 21.3 µM (inactive) | 19.4 µM (inactive) | 18.6 µM (inactive) | 20.6 µM (inactive) | 23.6 µM (inactive) | 18.6 µM (inactive) | 17.2 µM (inactive) | 19.1 µM (inactive) | 14.9 |  |  | 
18 | COC[C@H]1OC(=O)c2coc3c2[C@@]1(C)C1=C(C3=O)[C@@H]2CCC(=O)[C@@]2(C)C[C@H]1OC(C)=O [WORTMANNIN] | 35.7 µM (inactive) |  | 4.65 µM (inactive) |  | 11.5 µM (inactive) | 11.9 µM (inactive) | 8.43 µM (inactive) |  |  | 2.43 µM (inactive) | 1.38 µM (inactive) |  | 1.31 µM (inactive) | 3.66 µM (inactive) | 21.4 µM (inactive) | 9.91 | 0.598 µM (active) |  | 3.25 µM (inactive)
